In patent publication US5545545A, “Lysine-insensitive maize dihydrodipicolinic acid synthase” (priority 1993, dated 1996):
Where two headings read alike, the source gives them in different places.

Columns and labels:
[1] = target: T1, altered maize DHPS (pZM DHPS-M4, lysine for glutamic acid at position 108) (Zea mays, UniProt P26259, E162K/R367Q); assay: Lysine sensitivity of DHPS activity of mutant pZM DHPS-M4; format: biochemical
T1 construct: the 380 amino acids of the maize cDNA coding region; beta-galactosidase N-terminal residues (5 aa) (N); vector polylinker (18 aa) (N); translated 5' untranslated region of the cDNA (13 aa) (N); made in house; host or cells: E. coli AT997 dapA- (inferred from the repeated mutagenesis and selection protocol)
T1 sequence (P26259 whole entry E162K/R367Q): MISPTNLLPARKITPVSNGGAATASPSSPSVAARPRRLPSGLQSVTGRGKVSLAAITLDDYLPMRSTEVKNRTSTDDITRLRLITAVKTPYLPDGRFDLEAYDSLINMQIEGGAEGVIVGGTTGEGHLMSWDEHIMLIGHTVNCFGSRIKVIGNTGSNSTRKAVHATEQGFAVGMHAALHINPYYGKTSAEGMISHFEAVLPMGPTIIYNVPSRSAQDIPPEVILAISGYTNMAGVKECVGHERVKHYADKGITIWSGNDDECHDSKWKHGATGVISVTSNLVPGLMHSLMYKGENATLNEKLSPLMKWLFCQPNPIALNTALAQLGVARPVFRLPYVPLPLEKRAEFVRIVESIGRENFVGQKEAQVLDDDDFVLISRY
From the text: (§1) Additional independently derived mutations in maize DHPS were obtained by repeating the mutagenesis and selection protocol in separate experiments. […] Mutant plasmid pZM DHPS-M3 has a nucleotide change at position #496 (ACA instead of GCA); this change causes substitution of threonine for alanine at the same amino acid position (112) as altered in mutant pZM DHPS-M1. Mutant plasmid pZM DHPS-M4 has a nucleotide change at position #484 (AAA instead of GAA); this change causes substitution of lysine for glutamic acid at amino acid position #108.

[2] = target: T2, DHPS from wildtype, nontransformed E. coli strain DH5A (Escherichia coli, UniProt P0A6L2); assay: Lysine inhibition of DHPS from wildtype nontransformed E. coli (FIG. 4); format: biochemical; settings: lysine concentrations up to 1 mM
T2 construct: DHPS from wildtype, nontransformed E. coli strain DH5A; endogenous in cells; host or cells: E. coli DH5A
T2 sequence (P0A6L2 whole entry): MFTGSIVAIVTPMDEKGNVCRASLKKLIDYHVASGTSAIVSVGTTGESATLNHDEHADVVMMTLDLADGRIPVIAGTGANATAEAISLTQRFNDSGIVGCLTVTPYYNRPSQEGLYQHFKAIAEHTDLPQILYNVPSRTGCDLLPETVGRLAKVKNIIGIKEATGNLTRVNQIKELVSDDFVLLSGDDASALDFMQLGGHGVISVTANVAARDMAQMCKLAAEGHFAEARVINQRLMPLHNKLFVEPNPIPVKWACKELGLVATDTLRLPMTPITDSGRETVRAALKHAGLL

[3] = target: T3, altered maize DHPS (pZM DHPS-M2) fusion protein expressed in AT997 E. coli (Zea mays, UniProt P26259); assay: Lysine inhibition of partially purified mutant DHPS-M2 fusion protein (FIG. 4); format: biochemical; settings: L-lysine concentrations as high as 1.0 mM
T3 construct: heat-treated, desalted extract
T3 sequence (P26259 whole entry, the tested form may be a part): as the sequence (P26259 whole entry E162K/R367Q) above, with K162E, Q367R counted along it
Procedure: (§2) AT997 cells (approximately 1 ml packed vol), containing plasmids pZM DHPS5B, pZM DHPS-M1 or pZM DHPS-M2, were extracted by sonication (60 W, 20 s) into 5 ml of ice cold buffer containing (100 mM TRIS-HCl, pH 8.0, 100 mM NaCl, 50 mM pyruvate) and then centrifuged at […] for 10 min. The supernatant was placed in a water bath (60° C.) for 5 min, cooled to 4° C. and centrifuged. The resulting supernatant was desalted on a Sephadex G50 column in 10 mM TRIS-HCl, pH 8.0, and 1 mM EDTA.
(§3) DHPS activity was determined as described in Example 2 except that the reaction was stopped after 2 min; at longer reaction times, activity was not linear with time. The volume of enzyme was adjusted so that the absorbance at 520 nm increased approximately 0.1 A (=100 activity units) after 2 min for standard control assays. Lysine concentrations were varied from 0.01 mM to 1.0 mM in the presence of constant concentrations of the substrates pyruvate (20 mM) and aspartate semialdehyde (1.4 mM). The average of two or three assays were used to determine enzyme activity values and percent inhibition by lysine.

[4] = target: T4, altered maize DHPS (pZM DHPS-M1) fusion protein expressed in AT997 E. coli (Zea mays, UniProt P26259, A166V/R367Q); assay: Lysine inhibition of partially purified mutant DHPS-M1 fusion protein (FIG. 4); format: biochemical
T4 construct: made in house; host or cells: E. coli AT997 dapA- (pZM DHPS-M1), heat-treated, desalted extract
T4 sequence (P26259 whole entry A166V/R367Q, the tested form may be a part): as the sequence (P26259 whole entry E162K/R367Q) above, with K162E, A166V counted along it
Procedure: as §2, §3

[5] = tested on: maize DHPS (cDNA expression product in AT997dapA- transformants); assay: DHPS activity in crude lysates of AT997dapA- transformants pZM DHPS1 to pZM DHPS5, with or without lysine; format: biochemical; settings: for % Inhibition: 100 μM lysine
Procedure: (§4) Crude lysates from wildtype 71-18dapA^+ cells, AT997dapA^- transformed with pUC13 lacking a cDNA insert, and the five complementing transformant cell lines AT997(pZM DHPS1) to AT997(pZM DHPS5) were assayed for DHPS activity. The transformed cells were grown overnight in M9 medium+100 μM DAP, collected by centrifugation at 5000×g for 10 min and resuspended in 1/10 volume of extraction buffer (100 mM TRIS-HCl, pH 8.0, 100 mM NaCl, 100 mM pyruvate). Cells were placed briefly on ice, disrupted by sonication (60 W, 15 s) and debris removed by centrifugation at 15000×g for 15 min. The supernatant was desalted on a G25 Sephadex column equilibrated with 10 mM TRIS-HCl, pH 8.0 and 1 mM EDTA and used for enzyme assays.
(§5) The DHPS assay buffer (R. M. Wallsgrove et al., Phytochem., 20, 2651 (1981)) contained 100 mM TRIS-HCl, pH 8.0, 10 mM pyruvate, 1.4 mM aspartate semialdehyde neutralized just prior to use, and 100 μl enzyme in a final volume of 250 μl. Tubes were incubated at 37° C. for 30 min and reactions stopped by addition of 1 ml of 0.22M sodium citrate, 0.55M sodium phosphate, pH 5.0 and 0.25 mg/ml-aminobenzaldehyde. The colored reaction product was allowed to form for 3 hr at 37° C. and samples were centrifuged at 10000 g. Activity units (0.001 OD/min) were determined at 520 nm; standard errors of replicate assays were routinely <2% of the mean.

[6] = target: T5, altered maize DHPS (pZM DHPS-M3, threonine for alanine at position 112) (Zea mays, UniProt P26259, A166T/R367Q); assay: Lysine sensitivity of DHPS activity of mutant pZM DHPS-M3; format: biochemical
T5 construct: the 380 amino acids of the maize cDNA coding region; beta-galactosidase N-terminal residues (5 aa) (N); vector polylinker (18 aa) (N); translated 5' untranslated region of the cDNA (13 aa) (N); made in house; host or cells: E. coli AT997 dapA- (inferred from the repeated mutagenesis and selection protocol)
T5 sequence (P26259 whole entry A166T/R367Q): as the sequence (P26259 whole entry E162K/R367Q) above, with K162E, A166T counted along it
From the text: as §1

[7] = target: T6, native Zea mays DHPS (Zea mays, UniProt P26259); settings: highly purified DHPS from maize cells; Frisch et al., Plant Physiol., 96, 444 (1991); read-out: [I]0.5 value for lysine; cited from earlier work
T6 construct: host or cells: maize cells (highly purified DHPS)
T6 sequence (P26259 55-380): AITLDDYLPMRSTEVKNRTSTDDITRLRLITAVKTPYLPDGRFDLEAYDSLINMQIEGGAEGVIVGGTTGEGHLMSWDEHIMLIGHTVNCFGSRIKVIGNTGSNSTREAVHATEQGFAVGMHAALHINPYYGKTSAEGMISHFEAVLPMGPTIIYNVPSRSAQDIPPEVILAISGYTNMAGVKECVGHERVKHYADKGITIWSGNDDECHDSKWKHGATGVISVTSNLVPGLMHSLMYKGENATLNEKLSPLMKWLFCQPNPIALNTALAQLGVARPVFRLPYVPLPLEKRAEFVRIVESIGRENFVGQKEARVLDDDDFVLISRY

[8] = tested on: wildtype maize DHPS (pZM DHPS5B) fusion protein expressed in AT997 E. coli; assay: Lysine inhibition of partially purified wildtype maize DHPS fusion protein (FIG. 4); format: biochemical
Procedure: as §2, §3

[9] = target: T7, Purified DHPS from Black Mexican Sweet maize (Zea mays, UniProt P26259); assay: DHPS activity of purified maize DHPS, with or without lysine; format: biochemical
T7 construct: from tissue; host or cells: Black Mexican Sweet maize suspension cultures (endogenous enzyme, purified more than 4000-fold)
T7 sequence (P26259 55-380): T6 sequence (P26259 55-380)
Procedure: as §5
The putative start of the coding region for maize DHPS was established by comparison of the N-terminus amino acid sequence of SDS-PAGE purified DHPS monomer with the amino acid sequence derived from the nucleotide sequence. DHPS was purified more than 4000-fold with 25% recovery from Black Mexican Sweet maize suspension cultures by the procedure of D. A. Frisch et al., Plant Physiol., 96, 444 (1991). Only one protein band (ca. 130000 Mr) was detected by silver-staining after native polyacrylamide gel electrophoresis (PAGE) and this band corresponded to the position of DHPS activity. […]

[10] = target: T8, wildtype E. coli DHPS from 71-18dapA+ (Escherichia coli, UniProt P0A6L2); assay: DHPS activity in crude lysate of wildtype 71-18dapA+ cells, with or without lysine; format: biochemical
T8 construct: Crude lysates from wildtype 71-18dapA; endogenous in cells; host or cells: E. coli 71-18 (dapA+), crude desalted lysate
T8 sequence (P0A6L2 whole entry): as the sequence (P0A6L2 whole entry) above
Procedure: as §4, §5

[11] = target: T6, native Zea mays DHPS; assay: Lysine feedback inhibition of native maize DHPS in vitro; format: biochemical; settings: native Zea mays DHPS / native plant DHP synthase, read-out: I50 of feedback inhibition by lysine
From the text: For example, novel plants resulting from the present method contain extractable lysine levels at least about ten times, and preferably, at least about 50 times, e.g., about 50-250 times higher than plants of the same species which contain only native DHPS.
This difference in lysine sensitivity was an additional indication that the cDNA inserts were from maize and that restoration of DHPS activity in the E. coli mutant was not caused by reversion of the dapA^- allele or due to an interaction with pUC13 plasmid DNA. In preliminary tests of partially purified DHPS from cell line pZM DHPS5, the [I]0.5 value for lysine was determined to be in the range of 20 to 30 μM.

SMILES: NCCCC[C@H](N)C(=O)O [lysine, L-lysine]
- lysine sensitivity of DHPS activity [1]: lysine insensitivity
- inhibition of DHPS activity by lysine [2]: intermediate level of inhibition
- inhibition of DHPS activity by L-lysine [3]: not inhibited
- inhibition of DHPS activity by lysine ([4]; DHPS expressed from SEQ ID NO. 1 in E. coli transformants, 1000 μM lysine): not inhibited
- reduction in sensitivity to lysine versus native Zea mays DHPS ([4]; altered Zea mays DHPS of SEQ ID NO. 2): more than 400 times
- L-lysine level at which altered DHPS is active, relative to native DHPS ([4]; altered maize DHPS of the invention, in vitro): at least 100 fold
- inhibition of DHPS activity by L-lysine ([4]; pZM DHPS-M1, L-lysine concentrations as high as 1.0 mM): not inhibited
- Specific Activity, 100 μM Lysine ([5]; AT997dapA- (pZM DHPS1)): 24 0.001 OD520 /min per milligram
- % Inhibition ([5]; AT997dapA- (pZM DHPS1)): 90%
- Specific Activity, 100 μM Lysine ([5]; AT997dapA- (pZM DHPS2)): 15 0.001 OD520 /min per milligram
- % Inhibition ([5]; AT997dapA- (pZM DHPS2)): 91%
- Specific Activity, 100 μM Lysine ([5]; AT997dapA- (pZM DHPS3)): 22 0.001 OD520 /min per milligram
- % Inhibition ([5]; AT997dapA- (pZM DHPS3)): 88%
- Specific Activity, 100 μM Lysine ([5]; AT997dapA- (pZM DHPS4)): 42 0.001 OD520 /min per milligram
- % Inhibition ([5]; AT997dapA- (pZM DHPS4)): 86%
- Specific Activity, 100 μM Lysine ([5]; AT997dapA- (pZM DHPS5)): 27 0.001 OD520 /min per milligram
- % Inhibition ([5]; AT997dapA- (pZM DHPS5)): 90%
- lysine sensitivity of DHPS activity [6]: lysine insensitivity
- IC50 [7]: 23 µM
- inhibition of wildtype maize DHPS activity ([8]; 100 μM lysine, E. coli transformants): more than 90%
- inhibition of DHPS activity by lysine ([8]; pZM DHPS5B, lysine concentrations as low as 25 μM): significantly inhibited
- inhibition at 100 µM ([9]; 100 μM lysine): 97%
- DHPS activity, 100 μM Lysine ([9]; specific activity not determined (footnote b)): 8 units of DHPS activity
- Specific Activity, 100 μM Lysine ([10]; 71-18dapA+ crude lysate): 120 0.001 OD520 /min per milligram
- inhibition at 100 µM ([10]; 71-18dapA+, 100 μM lysine): 8%
- IC50 [11]: 25 µM
